Source: PubChem BioAssay AID330 (DTP/NCI, 2004)
“And” between values parts separate entries of the source, which are not always exact repeats. Equal values may be shown once. Inconclusive results and toxic doses are left out. How the source made its calls: active means survival T/C of 150% or more; inactive means T/C below 125% in these data. Square brackets hold non-standard residues; d marks the D form. Peptide text beside a SMILES is read from it. Abu = CC[CH](N)C(=O)O

Tested on: P388 leukemia ip, CD2F1 mice, survival T/C
Experiment: NCI In Vivo Anticancer Drug Screen. Data for tumor model P388 Leukemia (intraperitoneal) in CD2F1 (CDF1) mice
Details: endpoint: median survival time, higher = longer survival
How it was run: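 Mice carrying the transplanted tumor received test compound or vehicle. Survival was recorded in each group, and the value is the treated-group measurement divided by that of the vehicle-treated control group.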

[1] = dose: 50.0 mg/kg/injection, schedule: Q01DX009 (ip), vehicle: saline with Tween-80
[2] = dose: 50.0 mg/kg/injection, schedule: Q01DX009 (ip), vehicle: saline
[3] = dose: 100.0 mg/kg/injection, schedule: Q01DX009 (ip), vehicle: saline with Tween-80
[4] = dose: 100.0 mg/kg/injection, schedule: Q01DX009 (ip), vehicle: saline
[5] = dose: 200.0 mg/kg/injection, schedule: Q01DX009 (ip), vehicle: saline with Tween-80
[6] = dose: 200.0 mg/kg/injection, schedule: Q01DX009 (ip), vehicle: saline
[7] = dose: 100.0 mg/kg/injection, schedule: Q01DX001 (ip), vehicle: saline
[8] = dose: 200.0 mg/kg/injection, schedule: Q01DX001 (ip), vehicle: saline
[9] = dose: 400.0 mg/kg/injection, schedule: Q01DX001 (ip), vehicle: saline
[10] = dose: 60.0 mg/kg/injection, schedule: Q01DX005 (ip), vehicle: saline with Tween-80
[11] = dose: 50.0 mg/kg/injection, schedule: Q01DX005 (ip), vehicle: Klucel (hydroxypropylcellulose) (HPC)
[12] = dose: 100.0 mg/kg/injection, schedule: Q01DX005 (ip), vehicle: Klucel (hydroxypropylcellulose) (HPC)
[13] = dose: 200.0 mg/kg/injection, schedule: Q01DX005 (ip), vehicle: Klucel (hydroxypropylcellulose) (HPC)
[14] = dose: 50.0 mg/kg/injection, schedule: Q01DX005 (ip), vehicle: saline with Tween-80
[15] = dose: 100.0 mg/kg/injection, schedule: Q01DX005 (ip), vehicle: saline with Tween-80
[16] = dose: 200.0 mg/kg/injection, schedule: Q01DX005 (ip), vehicle: saline with Tween-80
[17] = dose: 50.0 mg/kg/injection, schedule: Q01DX005 (ip), vehicle: saline
[18] = dose: 100.0 mg/kg/injection, schedule: Q01DX005 (ip), vehicle: saline
[19] = dose: 200.0 mg/kg/injection, schedule: Q01DX005 (ip), vehicle: saline

Measured: T/C

COC(=O)C(Br)C(Br)c1ccccc1 (stereo not given)
inactive: dose: 25.0 mg/kg/injection, schedule: Q01DX009 (ip), vehicle: saline 104 % of control and 111 % of control | [1] 110 % of control | [2] 119 % of control | [3] 91 % of control | [4] 120 % of control | dose: 132.0 mg/kg/injection, schedule: Q01DX009 (ip), vehicle: saline with Tween-80 113 % of control | [5] 107 % of control and 113 % of control | [6] 122 % of control | dose: 300.0 mg/kg/injection, schedule: Q01DX009 (ip), vehicle: saline with Tween-80 95 % of control

COP(=O)(O)NS(=O)(=O)c1ccccc1
inactive: [7] 101 % of control | [8] 101 % of control | [9] 102 % of control

CCN(CC)C(=O)N1C=CC(c2ccccc2)C(C(C)=O)=C1 (stereo not given)
inactive: [10] 91 % of control | dose: 120.0 mg/kg/injection, schedule: Q01DX005 (ip), vehicle: saline with Tween-80 103 % of control | dose: 240.0 mg/kg/injection, schedule: Q01DX005 (ip), vehicle: saline with Tween-80 101 % of control

CC(=O)CSc1ccc(Cl)cc1
inactive: [1] 99 % of control | [3] 102 % of control | [5] 116 % of control

Cc1cc2cc3c4c(nn5nnnc5c4c2o1)-c1ccccc1CC3
inactive: [11] 92 % of control | [12] 86 % of control | [13] 95 % of control

COc1cc(C2c3cc4c(cc3[C@@H](OC3OC(COC(C)=O)C(OC(C)=O)C(OC(C)=O)C3OC(C)=O)[C@H]3COC(=O)[C@H]23)OCO4)cc(OC)c1OC (stereo not given in full)
inactive: dose: 4.0 mg/kg/injection, schedule: Q01DX005 (ip), vehicle: saline 107 % of control | dose: 8.0 mg/kg/injection, schedule: Q01DX005 (ip), vehicle: saline 113 % of control | dose: 16.0 mg/kg/injection, schedule: Q01DX005 (ip), vehicle: saline 105 % of control | dose: 32.0 mg/kg/injection, schedule: Q01DX005 (ip), vehicle: saline 98 % of control and 105 % of control | dose: 64.0 mg/kg/injection, schedule: Q01DX005 (ip), vehicle: saline 100 % of control | dose: 128.0 mg/kg/injection, schedule: Q01DX005 (ip), vehicle: saline 100 % of control

CCOC(=O)CC1(O)CSC(=C(C(=O)OCC)C(=O)OCC)N1c1ccccc1 (stereo not given)
inactive: [14] 98 % of control | [15] 91 % of control | [16] 102 % of control

CCOC(=Nc1ccc2ccccc2c1)SC(c1ccccc1)(c1ccccc1)c1ccccc1
inactive: [14] 107 % of control | [15] 95 % of control | [16] 87 % of control

CCCCCCCCCCCCCCCCOc1ccc(-c2cc(Cl)c3cc(S(=O)(=O)F)ccc3n2)cc1S(=O)(=O)F
inactive: [1] 86 % of control | dose: 50.0 mg/kg/injection, schedule: Q04DX003 (ip), vehicle: saline with Tween-80 90 % of control | [5] 90 % of control | dose: 200.0 mg/kg/injection, schedule: Q04DX003 (ip), vehicle: saline with Tween-80 90 % of control

O=C1NC(=O)C(C2CCOC2=O)N1 (stereo not given)
inactive: [1] 106 % of control | [3] 102 % of control | [5] 106 % of control

Cc1cccc(C)c1-n1c(C)nc2c(c(C)c(C)n2-c2ccccc2)c1=N
inactive: [11] 101 % of control | [12] 94 % of control

O=C1CSC(c2ccccc2F)N1c1ncccn1 (stereo not given)
inactive: dose: 12.5 mg/kg/injection, schedule: Q01DX005 (ip), vehicle: Klucel (hydroxypropylcellulose) (HPC) 105 % of control | dose: 25.0 mg/kg/injection, schedule: Q01DX005 (ip), vehicle: Klucel (hydroxypropylcellulose) (HPC) 108 % of control | [11] 108 % of control (2×) and 119 % of control | [12] 104 % of control and 109 % of control and 119 % of control | [13] 100 % of control and 109 % of control

Clc1ccc(S/N=C/c2ccccc2)cc1
inactive: [1] 113 % of control | [3] 114 % of control

CCC(C)CCC(=O)O (stereo not given)
inactive: [1] 98 % of control | [3] 97 % of control | [5] 99 % of control

CCCCCCCCC1=CCc2c1ccc1c2ccc2cc(C(=O)Oc3cccc(N(CCCl)CCCl)c3)ccc21
inactive: [7] 99 % of control | [8] 100 % of control | [9] 100 % of control

COCCn1c(N)c(C(=S)Nc2ccccc2)c(=O)[nH]c1=O
inactive: [2] 101 % of control | [4] 104 % of control | [6] 105 % of control

C/C=C/C=c1/[nH]c(=O)/c(=C\C)[nH]c1=O
inactive: dose: 50.0 mg/kg/injection, schedule: Q04DX003 (ip), vehicle: Klucel (hydroxypropylcellulose) (HPC) 100 % of control | dose: 100.0 mg/kg/injection, schedule: Q04DX003 (ip), vehicle: Klucel (hydroxypropylcellulose) (HPC) 98 % of control | dose: 200.0 mg/kg/injection, schedule: Q04DX003 (ip), vehicle: Klucel (hydroxypropylcellulose) (HPC) 90 % of control

COc1cccc2c1C(=O)c1c(O)c3c(c(O)c1C2=O)CC(O)(C(C)=O)CC3OC1CC(NCC2(O)OC(C(=O)NCCCN(C)C)C(O)C2O)C(O)C(C)O1 (stereo not given)
inactive: dose: 2.5 mg/kg/injection, schedule: Q04DX003 (ip), vehicle: water 101 % of control | dose: 5.0 mg/kg/injection, schedule: Q04DX003 (ip), vehicle: water 109 % of control | dose: 10.0 mg/kg/injection, schedule: Q04DX003 (ip), vehicle: water 108 % of control | dose: 20.0 mg/kg/injection, schedule: Q04DX003 (ip), vehicle: water 109 % of control | dose: 40.0 mg/kg/injection, schedule: Q04DX003 (ip), vehicle: water 109 % of control

COc1ccc(C(c2c(O)c3ccccc3oc2=O)N2CCCC2)cc1 (stereo not given)
inactive: dose: 15.0 mg/kg/injection, schedule: Q01DX005 (ip), vehicle: saline with Tween-80 100 % of control | dose: 30.0 mg/kg/injection, schedule: Q01DX005 (ip), vehicle: saline with Tween-80 100 % of control | [10] 103 % of control and 97 % of control

N#CC(C#N)=C(C#N)c1ccccc1
inactive: dose: 12.5 mg/kg/injection, schedule: Q01DX009 (ip), vehicle: saline with Tween-80 90 % of control | dose: 25.0 mg/kg/injection, schedule: Q01DX009 (ip), vehicle: saline with Tween-80 113 % of control

CC1OC(=O)C(C2OC2C)=CC1O (stereo not given)
inactive: [17] 97 % of control | [18] 105 % of control | [19] 105 % of control

CCCC[N+](CCCC)=c1ccc2nc3c(C)cc(N(CC)CC)cc3sc-2c1
inactive: dose: 0.75 mg/kg/injection, schedule: Q01DX005 (ip), vehicle: saline 111 % of control | dose: 1.5 mg/kg/injection, schedule: Q01DX005 (ip), vehicle: saline 112 % of control | dose: 3.0 mg/kg/injection, schedule: Q01DX005 (ip), vehicle: saline 118 % of control and 120 % of control

CCCNNC(N)=S
inactive: dose: 12.5 mg/kg/injection, schedule: Q01DX009 (ip), vehicle: other 105 % of control | dose: 25.0 mg/kg/injection, schedule: Q01DX009 (ip), vehicle: other 105 % of control

CCC(N)C(=O)NC(CO)C(=O)O (stereo not given) (H-[Abu]-Ser-OH; configuration not given here)
inactive: [17] 106 % of control | [18] 109 % of control | [19] 106 % of control

CC(=O)OCC1OC(Nc2ncc(-c3ccc(C)cc3)s2)C(OC(C)=O)C(OC(C)=O)C1OC(C)=O (stereo not given)
inactive: [14] 98 % of control | [15] 98 % of control | [16] 92 % of control
